These results are taken from patent publication US8829015B2 (Novartis AG, priority 2005, dated 2014).

Converted amounts (≈) assume the structure as drawn. “And” between values parts separate entries of the source, which are not always exact repeats. Identical values can stand only once. Counter-ions that a name gives are not always drawn. Where only a bound is given, the exact number is not on record here.

A short description of series [1]: Solubility by gravimetric techniques at different temperatures, residue by XRPD.
A short description of series [2]: Equilibration of hydrochloride forms A, B and C with solvents, XRPD. Type of series: physicochemical. From the text: Then the solutions were filtered and the solid part investigated by XRPD.
Series [3] can be described thus: Stability studies on storage. Format: physicochemical. The note with it: storage at various relative humidities.
Series [4] can be described thus: physchem. The note with it: thermodynamic from solid.
Series [5] can be described thus: Intrinsic dissolution rate (rotating disk). The note with it: for Intrinsic dissolution rate: 37° C., 200 rpm. Type of series: physicochemical. As for the experimental part: Intrinsic Dissolution Rate (IDR): Dissolution rate measurements were performed at 37° C. using the rotating disk method (VanKell Instrument). A single rotation speed of 200 rpm was used. For IDR in 0.1N HCl, an 800 mL volume, and for IDR in water, a 200 mL volume were used. The solution was continuously pumped through a UV measuring cell and recycled to the dissolution vessel.
The measurements were carried out on a VanKel instrument using a Cary 100 photometer.

Series [6] is described as follows: Form conversion on exposure to solvent vapor, air, moisture or room conditions. Format: physicochemical. Particulars: in the presence of methanol vapor.
Series [7] is described as follows: physchem. The note with it: aqueous buffer solution, pH 2.8, aqueous buffer, thermodynamic from solid.
Series [8] can be described thus: Equilibration of free base forms with solvents, XRPD. Type of series: physicochemical. An excerpt: The solid part was investigated by XRPD.
A short description of series [9]: Hygroscopicity (water uptake). The note with it: 25° C. up to 80% r.h. Format: physicochemical.
The nature of series [10]: pH of 1% solution or suspension in water. Type of series: physicochemical. The note with it: 1% in water; listed as Free base form B.
Series [11] is described as follows: Thermal properties by TGA and DSC. Type of series: physicochemical.
Source text: Form A's basic thermal properties were studied by thermogravimetric analysis (TGA) and differential scanning calorimetry (DSC) and are as follows:
Series [12] is described as follows: Equilibration of A-B mixtures of the hydrochloride salt in solvents. Format: physicochemical.
The mark [13] stands for this setting: methanol/water (95/5) v/v, 20 °C, organic solvent or mixture.
[14] abbreviates: methanol/water (95/5) v/v, 45 °C, organic solvent or mixture.
[15] abbreviates: methanol/water (95/5) v/v, -10 °C, organic solvent or mixture.
Where [16] appears, read: methanol/water (99.5/0.5) v/v, 20 °C, organic solvent or mixture.
The mark [17] stands for this setting: methanol/water (99.5/0.5) v/v, 45 °C, organic solvent or mixture.

Consider `Cc1cn(-c2cc(NC(=O)c3ccc(C)c(Nc4nccc(-c5cccnc5)n4)c3)cc(C(F)(F)F)c2)cn1` [Form A of the hydrochloride salt], for which the Solubility (as a rule, the concentration that dissolves in the medium under given conditions) stood at 0.45 mg/mL in series [1] (0.0001N HCl, 25° C., after 24 hours); 0.79 mg/mL in [1] (0.001N HCl, 50° C., after 24 hours); 0.43 mg/mL in series [1] (0.01N HCl, 25° C., after 24 hours); 2.46 mg/mL in series [1] (0.1N HCl, 50° C., after 24 hours); 28.18 mg/mL in series [1] (Methanol/Water (95/5) v/v, 20° C., 1 hour); 4.74 mg/mL in series [1] (Methanol/Water (95/5) v/v, −10° C., 24 hours). In addition, the Solubility in series [1] (Methanol/Water (99.5/0.5) v/v, −10° C., 10 minutes) is recorded as 24.01 mg/mL; in series [1] (Methanol/Water (99.5/0.5) v/v, −10° C., 1 hour), 26.37 mg/mL; in series [1] (Water, 25° C., after 24 hours), 0.35 mg/mL. Moreover, the “XRPD (form of the solid)” value is listed as “C + B” in [1] (Methanol, 50° C., after 24 hours); “A + B + C” in series [1] (Methanol/Water (95/5) v/v, 45° C., 1 hour); “A + B” in series [1] (Methanol/Water (99.5/0.5) v/v, 20° C., 10 minutes); “A + B” in [1] (Methanol/Water (99.5/0.5) v/v, 20° C., 1 hour); “A + B” in [1] (Methanol/Water (99.5/0.5) v/v, 45° C., 10 minutes); “C + B” in series [1] (Methanol/Water (99.5/0.5) v/v, 45° C., 1 hour). The “XRPD (form of the solid)” value in series [1] (Methanol/Water (99.5/0.5) v/v, 45° C., 24 hours) is on record as “C + B”. The “form transition on equilibration” value was “transitioned to a mixture of forms B and C” in series [2] (methanol, 50° C., 1 day); “transitioned to form B” in [2] (methanol, one day, 25° C.); “transitioned to form C” in series [2] (methanol/HCl 0.1N, 50° C., 1 day); “transitioned to form B with a small amount of form C” in [2] (methanol/HCl 0.1N, one day, 25° C.); “transitioned to form C” in series [2] (methanol/water (99:1), 50° C., 1 day); “transitioned to form C with a small amount of form B” in series [2] (methanol/water (99:1), one day, 25° C.). Besides, the “form transition on equilibration” value in series [2] (methanol/water (99.3:0.7), 50° C., 1 day) is on record as “transitioned to form C”; in series [2] (methanol/water (99.3:0.7), one day, 25° C.), “transitioned to form B with a small amount of form C”. For the same compound, in series [3], the “form transition after storage” value is on record as “No form transitions were observed”. Also, the solubility (as a rule, the dissolved amount per volume that the medium holds) at 24 h is 0.92 mg/mL in series [4] (0.001N HCl, 25 °C, aqueous buffer); 0.85 mg/mL in series [4] (0.01N HCl, 50 °C, simulated gastric fluid); 1.32 mg/mL in [4] (0.1N HCl, 25 °C, simulated gastric fluid); 13.8 mg/mL in series [4] (methanol, 25 °C, organic solvent or mixture); 52.5 mg/mL in series [4] (methanol, 50 °C, organic solvent or mixture); 13.1 mg/mL in series [4] (setting [13]). Also, the solubility at 24 h in series [4] (setting [16]) came out at 12.2 mg/mL; in series [4] (setting [17]) it was 41.9 mg/mL; in [4] (methanol/water (99.5/0.5) v/v, -10 °C, organic solvent or mixture), 4.96 mg/mL; in series [4] (water, 50 °C) it was 1.03 mg/mL. Moreover, the solubility at 10 min is 25.7 mg/mL in [4] (setting [13]); 46.1 mg/mL in series [4] (setting [14]); 12.3 mg/mL in series [4] (setting [15]); 33.7 mg/mL in series [4] (setting [16]); 52.2 mg/mL in [4] (setting [17]). Also, the solubility at 1 h amounted to 61.1 mg/mL in series [4] (setting [14]), 14.4 mg/mL in [4] (setting [15]) and 62.5 mg/mL in series [4] (setting [17]). The “Intrinsic Dissolution Rate value” in [5] (dissolution medium HCl 0.0001 N) was 0.0003 mg/min/cm^2; in series [5] (dissolution medium HCl 0.001 N), 0.0089 mg/min/cm^2; in series [5] (dissolution medium HCl 0.01 N) it was 0.0178 mg/min/cm^2; in series [5] (dissolution medium HCl 0.1 N), 0.6778 mg/min/cm^2 and 1.2467 mg/min/cm^2; in series [5] (dissolution medium Water), 0.0004 mg/min/cm^2; in series [5] (dissolution medium pH 2 (citrate buffer)), 0.0076 mg/min/cm^2. In series [6], the form conversion result is “converts to form B”.

Regarding `Cc1cn(-c2cc(NC(=O)c3ccc(C)c(Nc4nccc(-c5cccnc5)n4)c3)cc(C(F)(F)F)c2)cn1` [Form B of the free base], the concentration in solution in series [7] (Solubility) came to 0.0028 mg/mL (≈ 5.29 µM). Moreover, the “form transition on equilibration” value is “No form transition occurred” in series [8] (seven solvents (methanol, ethanol, 2-propanol, ethyl acetate, acetone, tetrahydrofuran, acetonitrile), at least 48 hours, room temperature) and “No form transitions occurred with the exception of one trial of form B in water” in [8] (thirteen solvents, one day, 25° C.). In series [9], the hygroscopicity entry was “not hygroscopic”. Also, the maximum water uptake entry in series [9] is “less than 0.2%”. For the same compound, the “pH of 1% solution or suspension in water” value in series [10] is 7.99. In series [11], this compound displayed a Decomposition temperature of over 300 °C. Also, the Intrinsic dissolution rate in series [5] (Water, listed as Free base form B) was 0.0013 mg min^−1cm^−2; in [5] (pH 1 (0.1 N HCl)) it was 0.17 mg min^−1cm^−2.

Consider `Cc1cn(-c2cc(NC(=O)c3ccc(C)c(Nc4nccc(-c5cccnc5)n4)c3)cc(C(F)(F)F)c2)cn1`, for which the “Form after equilibration of A-B mixture” value in series [12] (Methanol 0.25% water, 24 hours 40° C., ? = extra peak (unclear whether new form or free base)) is “B/?”; in series [12] (Methanol 10% water, significant enrichment in A after 12 hours), “A/B”.

For `Cc1cn(-c2cc(NC(=O)c3ccc(C)c(Nc4nccc(-c5cccnc5)n4)c3)cc(C(F)(F)F)c2)cn1` [form A/form B (1:1)], the “form transition on equilibration” value in series [8] (seven solvents (ethanol absolute, methanol, tetrahydrofuran, water, tetrahydrofuran/water, ethanol/water, methanol/water 1:1), one day, 25° C.) is “No form transitions occurred”.
